Laboratory results taken from US12331054B2, “Perk inhibiting imidazolopyrazine compounds” (HiberCell, Inc., priority 2019, dated 2025).

How the values were obtained:
[1] = molecular target: Recombinant human EIF2AK3 (PERK) catalytic domain (amino acids 536-1116) (Homo sapiens (Human), UniProt Q9NZJ5); assay: PERK In Vitro Activity Assay (isolated), TR-FRET kinase assay; conditions: isolated PERK enzyme, 1.5 μM ATP, read-out: Biochemical IC50
Excerpt: PERK In Vitro Activity Assay (isolated):
In vitro Inhibition of PERK Enzyme Activity (isolated) Recombinant human EIF2AK2 (PKR) catalytic domain (amino acids 252-551), EIF2AK3 (PERK) catalytic domain (amino acids 536-1116), GFP-eIF2a substrate, and Terbium-labelled phospho-eIF2a antibody is obtained (Invitrogen, Carlsbad, CA).
Express and purify HIS-SUMO-GCN2 catalytic domain (amino acids 584-1019) from E. coli. Perform TR-FRET kinase assays in the absence or presence of inhibitors in a reaction buffer consisting of 50 mM HEPES, pH 7.5, 10 mM MgCb, 1.0 mM EGTA, and 0.01% Brij-35, and 100-200 nM GFP-eIF2a substrate. […] Add test compound, initiate the reaction by addition of enzyme, and incubate at room temperature for 45 minutes. Stop the reaction by addition of EDTA to a final concentration of 10 mM, add Terbium-labelled phospho-eIF2a antibody at a final concentration of 2 nM, and incubate for 90 minutes. Monitor the resulting fluorescence in an EnVison® Multilabel reader (PerkinElmer, Waltham, MA). Determine TR-FRET ratios and the resulting IC50 values using a 4-parameter nonlinear logistic equation as shown: Y=(A+((B−A)/(1+(C/x)AD)))) where, Y=% specific inhibition, A=Bottom of the curve, B=Top of the curve, C=absolute IC50 (concentration causing 50% inhibition), and D=hill slope.

[2] = tested on: eIF2α in HEK293-EGFP-eIF2α cells; assay: PERK Cellular Assay (HEK293-EGFP-eIF2α cells, tunicamycin-induced ER stress, TR-FRET); format: cell-based; conditions: tunicamycin 2 hours
Description: Stable cell lines were created in HEK293 cells using lentiviral particles harboring an expression vector for GFP-eIF2α. Cells were selected using puromycin and enriched using fluorescence activated cell sorting against GFP. HEK293-EGFP-eIF2α cells were plated at 5000 cells/well in 384-well assay plates and incubated overnight at 37° C., 5% CO2. Inhibitor compounds were added to the wells by Echo acoustic dispensing and incubated for 30 minutes at 37° C., 5% CO2 prior to induction of ER stress by addition of tunicamycin to […] for 2 hours. Cells were lysed and TR-FRET was measured in an EnVision plate reader (PerkinElmer). FRET ratio data was normalized to signal from lysates treated with DMSO vehicle control and plotted as percent inhibition against 10-point; 3-fold dilution series of inhibitors. IC50 values were calculated using 4-parameter logistical fitting in XLFit.

Recombinant human EIF2AK3 (PERK) catalytic domain (amino acids 536-1116), sequence (Q9NZJ5 536-1116): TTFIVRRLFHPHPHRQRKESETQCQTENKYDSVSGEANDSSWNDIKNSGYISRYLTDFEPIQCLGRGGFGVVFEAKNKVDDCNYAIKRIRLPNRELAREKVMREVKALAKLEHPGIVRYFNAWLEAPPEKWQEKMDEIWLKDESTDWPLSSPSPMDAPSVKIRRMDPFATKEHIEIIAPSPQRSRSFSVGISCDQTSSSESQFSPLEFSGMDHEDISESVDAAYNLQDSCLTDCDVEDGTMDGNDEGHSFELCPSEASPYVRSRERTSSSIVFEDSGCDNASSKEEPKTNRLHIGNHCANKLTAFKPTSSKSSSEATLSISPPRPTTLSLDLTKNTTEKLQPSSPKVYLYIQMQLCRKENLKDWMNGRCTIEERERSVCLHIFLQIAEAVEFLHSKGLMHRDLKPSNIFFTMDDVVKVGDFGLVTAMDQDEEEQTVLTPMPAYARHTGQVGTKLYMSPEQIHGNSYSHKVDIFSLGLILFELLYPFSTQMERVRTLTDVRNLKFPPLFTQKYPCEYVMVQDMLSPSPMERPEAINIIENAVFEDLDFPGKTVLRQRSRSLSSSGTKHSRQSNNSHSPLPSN

Row | Compound | IC50 [1] | IC50 [2]
1 | [2H]C([2H])([2H])c1nc(-c2ccc(NC(=O)C(O)c3cc(F)cc(F)c3)cc2F)c2c(N)ncc(C)n12 (centres unmarked) [Example 104, N-[4-[8-amino-5-methyl-3-(trideuteriomethyl)imidazo[1,5-a]pyrazin-1-yl]-3-fluoro-phenyl]-2-(3,5-difluoro-phenyl)-2-hydroxy-acetamide] | 1 to 25 nM | 1 to 25 nM
2 | CCc1cc(NC(=O)C(O)c2cccc(F)c2)ccc1-c1nc(C)n2c(C)cnc(N)c12 (centres unmarked) [Example 66, N-(4-(8-amino-3,5-dimethylimidazo [1,5-a]pyrazin-1-yl)-3-ethylphenyl)-2-(3-fluorophenyl)-2-hydroxy-acetamide] | 1 to 25 nM | 26 to 50 nM
3 | Cc1cc(NC(=O)C(O)c2cccc(F)c2)ccc1-c1nc(C)n2ccnc(N)c12 (centres unmarked) [Example 2, N-(4-(8-amino-3-methylimidazo[1,5-a]pyrazin-1-yl)-3-methylphenyl)-2-(3-fluorophenyl)-2-hydroxyacetamide] | 26 to 50 nM | 251 to 500 nM
4 | Cc1c(-c2nc(C)n3c(C)cnc(N)c23)ccc(NC(=O)C(O)c2cccc(F)c2)c1F (centres unmarked) [Example 168, N-(4-(8-amino-3,5-dimethyl-imidazo[1,5-a]pyrazin-1-yl)-2-fluoro-3-methyl-phenyl)-2-(3-fluorophenyl)-2-hydroxy-acetamide] | 1 to 25 nM | 251 to 500 nM
5 | [2H]C([2H])([2H])c1nc(-c2ccc(NC(=O)C(O)c3cccc(Cl)c3)c(F)c2F)c2c(N)ncc(C)n12 (centres unmarked) [Example 139, N-[4-[8-amino-5-methyl-3-(trideuteriomethyl)imidazo[1,5-a]pyrazin-1-yl]-2,3-difluoro-phenyl]-2-(3-chlorophenyl)-2-hydroxy-acetamide] | 1 to 25 nM | 101 to 250 nM
6 | [2H]C([2H])([2H])c1nc(-c2ccc(NC(=O)C(O)c3cccc(C(F)(F)F)c3)cc2F)c2c(N)ncc(C)n12 (centres unmarked) [Example 94, N-[4-[8-amino-5-methyl-3-(trideuteriomethyl)imidazo[1,5-a]pyrazin-1-yl]-3-fluoro-phenyl]-2-hydroxy-2-[3-(trifluoromethyl)phenyl]acetamide] | 1 to 25 nM | 1 to 25 nM
7 | [2H]C([2H])([2H])c1nc(-c2ccc(NC(=O)C(O)c3cccc(Cl)c3)c(F)c2F)c2c(N)nc(C)cn12 (centres unmarked) [Example 141, N-[4-[8-amino-6-methyl-3-(trideuteriomethyl)imidazo[1,5-a]pyrazin-1-yl]-2,3-difluoro-phenyl]-2-(3-chlorophenyl)-2-hydroxy-acetamide] | 51 to 100 nM | 501 to 1000 nM
8 | Cc1cn2c(C)nc(-c3ccc(NC(=O)C(O)c4cccc(F)c4)c(F)c3F)c2c(N)n1 (centres unmarked) [Example 128, N-(4-(8-amino-3,6-dimethyl-imidazo[1,5-a]pyrazin-1-yl)-2,3-difluoro-phenyl)-2-(3-fluorophenyl)-2-hydroxyacetamide] | 1 to 25 nM | 1 to 25 nM
9 | [2H]C([2H])([2H])c1nc(-c2ccc(NC(=O)C(O)c3cccc(F)c3)cc2F)c2c(N)ncc(Cl)n12 (centres unmarked) [Example 75, N-[4-[8-amino-5-chloro-3-(trideuteriomethyl)imidazo[1,5-a]pyrazin-1-yl]-3-fluoro-phenyl]-2-(3-fluorophenyl)-2-hydroxy-acetamide] | 1 to 25 nM | 26 to 50 nM
10 | [2H]C([2H])([2H])c1nc(-c2ccc(NC(=O)C(O)c3cc(F)cc(C(F)(F)F)c3)cc2F)c2c(N)ncc(C(F)(F)F)n12 (centres unmarked) [Example 113, N-[4-[8-amino-3-(trideuteriomethyl)-5-(trifluoromethyl)imidazo[1,5-a]pyrazin-1-yl]-3-fluoro-phenyl]-2-[3-fluoro-5-(trifluoromethyl)phenyl]-2-hydroxy-acetamide] | 51 to 100 nM | 101 to 250 nM
11 | [2H]C([2H])([2H])c1nc(-c2ccc(NC(=O)C(O)c3cccc(Cl)c3)cc2C)c2c(N)nc(C)cn12 (centres unmarked) [Example 34, N-[4-[8-amino-6-methyl-3-(trideuteriomethyl)imidazo[1,5-a]pyrazin-1-yl]-3-methyl-phenyl]-2-(3-chlorophenyl)-2-hydroxy-acetamide] | 1 to 25 nM | 26 to 50 nM
12 | [2H]C([2H])([2H])c1nc(-c2cnc(NC(=O)C(O)c3cccc(F)c3)cc2C)c2c(N)ncc(C)n12 (centres unmarked) [Example 181, N-[5-[8-amino-5-methyl-3-(trideuteriomethyl)imidazo[1,5-a]pyrazin-1-yl]-4-methyl-2-pyridyl]-2-(3-fluorophenyl)-2-hydroxy-acetamide] | 1 to 25 nM | 26 to 50 nM
13 | [2H]C([2H])([2H])c1nc(-c2ccc(NC(=O)C(O)c3cccc(C(F)(F)F)c3)nc2C)c2c(N)ncc(C)n12 (centres unmarked) [Example 175, N-[5-[8-amino-5-methyl-3-(trideuteriomethyl)imidazo[1,5-a]pyrazin-1-yl]-6-methyl-2-pyridyl]-2-hydroxy-2-[3-(trifluoromethyl)phenyl]acetamide] | 1 to 25 nM | 101 to 250 nM
14 | [2H]C([2H])([2H])c1nc(-c2ccc(NC(=O)C(O)c3cc(F)cc(C(F)(F)F)c3)cc2C)c2c(N)ncc(C)n12 (centres unmarked) [Example 55, N-[4-[8-amino-5-methyl-3-(trideuteriomethyl)imidazo[1,5-a]pyrazin-1-yl]-3-methyl-phenyl]-2-[3-fluoro-5-(trifluoromethyl)phenyl]-2-hydroxy-acetamide] | 1 to 25 nM | 101 to 250 nM
15 | [2H]C([2H])([2H])c1nc(-c2ccc(NC(=O)C(O)c3cc(F)cc(C(F)(F)F)c3)cc2C)c2c(N)ncc(C(F)(F)F)n12 (centres unmarked) [Example 61, N-[4-[8-amino-3-(trideuteriomethyl)-5-(trifluoromethyl)imidazo[1,5-a]pyrazin-1-yl]-3-methyl-phenyl]-2-[3-fluoro-5-(trifluoromethyl)phenyl]-2-hydroxy-acetamide] | 51 to 100 nM | 251 to 500 nM
16 | [2H]C([2H])([2H])c1nc(-c2ccc(NC(=O)C(O)c3cc(F)cc(F)c3)cc2F)c2c(N)ncc(C(F)(F)F)n12 (centres unmarked) [Example 107, N-[4-[8-amino-3-(trideuteriomethyl)-5-(trifluoromethyl)imidazo[1,5-a]pyrazin-1-yl]-3-fluoro-phenyl]-2-(3,5-difluoro-phenyl)-2-hydroxy-acetamide] | 1 to 25 nM | 26 to 50 nM
17 | [2H]C([2H])([2H])c1nc(-c2ccc(NC(=O)C(O)c3cccc(Cl)c3)c(F)c2F)c2c(N)nc(C)cn12 (centres unmarked) [Example 140, N-[4-[8-amino-6-methyl-3-(trideuteriomethyl)imidazo[1,5-a]pyrazin-1-yl]-2,3-difluoro-phenyl]-2-(3-chlorophenyl)-2-hydroxy-acetamide] | 1 to 25 nM | 1 to 25 nM
18 | [2H]C([2H])([2H])c1nc(-c2ccc(NC(=O)C(O)c3cccc(Cl)c3)c(F)c2F)c2c(N)ncc(Cl)n12 (centres unmarked) [Example 144, N-[4-[8-amino-5-chloro-3-(trideuteriomethyl)imidazo[1,5-a]pyrazin-1-yl]-2,3-difluoro-phenyl]-2-(3-chlorophenyl)-2-hydroxy-acetamide] | 1 to 25 nM | 51 to 100 nM
19 | [2H]C([2H])([2H])c1nc(-c2ccc(NC(=O)C(O)c3cc(F)cc(C(F)(F)F)c3)c(F)c2F)c2c(N)ncc(C)n12 (centres unmarked) [Example 160, N-[4-[8-amino-5-methyl-3-(trideuteriomethyl)imidazo[1,5-a]pyrazin-1-yl]-2,3-difluoro-phenyl]-2-[3-fluoro-5-(trifluoromethyl)phenyl]-2-hydroxy-acetamide] | 1 to 25 nM | 1 to 25 nM
20 | [2H]C([2H])([2H])c1nc(-c2ccc(NC(=O)C(O)c3cccc(F)c3)cc2C)c2c(N)ncc(Cl)n12 (centres unmarked) [Example 33, N-[4-[8-amino-5-chloro-3-(trideuteriomethyl)imidazo[1,5-a]pyrazin-1-yl]-3-methyl-phenyl]-2-(3-fluorophenyl)-2-hydroxy-acetamide] | 1 to 25 nM | 51 to 100 nM
21 | CCc1cc(NC(=O)C(O)c2cccc(F)c2)ccc1-c1nc(C)n2c(C)cnc(N)c12 (centres unmarked) [Example 67, N-(4-(8-amino-3,5-dimethylimidazo [1,5-a]pyrazin-1-yl)-3-ethylphenyl)-2-(3-fluorophenyl)-2-hydroxy-acetamide] | 1 to 25 nM | 101 to 250 nM
22 | [2H]C([2H])([2H])c1nc(-c2ccc(NC(=O)C(O)c3cccc(Cl)c3)cc2F)c2c(N)ncc(C(F)(F)F)n12 (centres unmarked) [Example 83, N-[4-[8-amino-3-(trideuteriomethyl)-5-(trifluoromethyl)imidazo[1,5-a]pyrazin-1-yl]-3-fluoro-phenyl]-2-(3-chlorophenyl)-2-hydroxy-acetamide] | 1 to 25 nM | 51 to 100 nM
